Source: article PMC9029089, “1,5-Disubstituted Acylated 2-Amino-4,5-dihydroimidazoles as a New Class of Retinoic Acid Receptor–Related Orphan Receptor (ROR) Inhibitors” (International Journal of Molecular Sciences, 2022)

These molecules were tested against T1, RORγ (Mus musculus, UniProt P51450) (assay: Gal4-RORγ-LBD UAS-luciferase reporter assay in TRex-CHO-K1 cells (doxycycline-stimulated)). Details: individual controls 1295.201-307, 5 μg/ml, triplicate.
T1 construct: mRORγ (Pro-261-end); expressed in transfected cells
T1 sequence (P51450 261-516 limits assumed): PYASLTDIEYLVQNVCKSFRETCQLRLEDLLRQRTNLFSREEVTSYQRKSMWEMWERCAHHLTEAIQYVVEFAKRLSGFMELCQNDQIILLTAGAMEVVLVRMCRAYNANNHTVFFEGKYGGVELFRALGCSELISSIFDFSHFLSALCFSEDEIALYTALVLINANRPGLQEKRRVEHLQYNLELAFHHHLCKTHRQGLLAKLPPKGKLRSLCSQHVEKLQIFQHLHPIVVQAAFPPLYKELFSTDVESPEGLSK
Format: cell-based
Description: The Gal4-DBD-ROR-LBD fusion proteins were subcloned in the pcDNA4/TO expression vector (Thermo Scientific) and transfected into TRex-CHO-K1 cells (Thermo Scientific) for tetracycline-controlled expression of the corresponding ROR proteins. Transfected cells were selected with hygromycin and Zeocin and individual clones for each of the Gal4-RORγ, Gal4-RORα, and Gal4-RORβ cell lines were isolated using a standard serial dilution protocol. Clones with the highest doxycycline-dependent stimulation of luciferase activity were selected for all functional experiments.
For screening FIU libraries, cells were resuspended in Ham’s F-12 assay medium containing 2% charcoal-treated FBS and no selection drugs. […] Cells were allowed to attach for 2 h, followed by compound treatment and stimulation with 20 ng/mL doxycycline for an additional 16–20 h. Appropriate solvent controls, negative controls with no doxycycline, and blanks with no cells were included in every plate. Prior to measuring luciferase activity, 6 µL of 0.15 mg/mL resazurin (Cayman Chemical) in PBS were added and cells were incubated for 1 h at 37 °C. Fluorescence intensity was detected at 545 nm excitation/590 nm emission using a CLARIOstar reader (BMGLabtech) as a measure of cell viability, to identify any potential cytotoxic effect of test compounds and mixtures.
Luminescence was normalized by the fluorescence intensity and the percentage of inhibition was calculated with respect to control cells stimulated with doxycycline in the presence of solvent control (0.1% DMF). All primary screens with individual compounds were performed in triplicate with a final concentration of 5 µg/mL. […] IC50 values were calculated using GraphPrism (GraphPad software).

Compared with `CCC(CN1C(NC(=O)Cc2ccccc2)=NCC1Cc1ccccc1)c1ccccc1` (mixture of isomers) [1295.235], `CC(CCN1C(NC(=O)Cc2ccccc2)=NCC1Cc1ccccc1)c1ccccc1` (mixture of isomers) [1295.236] is lower in “% Inhibition RORγ 5 μg/ml” value: 35.8% for the first, 26.8% for the second.

First: CC(C)Cc1ccc(C(C)CN2C(NC(=O)Cc3ccccc3)=NCC2Cc2ccccc2)cc1 (mixture of isomers) [1295.245]
Second: CC(C)Cc1ccc(C(C)C(=O)NC2=NCC(Cc3ccccc3)N2CCc2ccccc2)cc1 (mixture of isomers) [1295.283]
The “% Inhibition RORγ 5 μg/ml” value of the first is lower: 21.5% for the first, 58.6% for the second.

Going from `CCC(C)CN1C(NC(=O)Cc2ccccc2)=NCC1Cc1ccccc1` (mixture of isomers) [1295.256] to `CC(C)CN1C(NC(=O)Cc2ccccc2)=NC[C@@H]1Cc1ccccc1` [1295.255], the “% Inhibition RORγ 5 μg/ml” value falls from -8.1% to -9.8%.

Going from `CCC(C)C(=O)NC1=NCC(Cc2ccccc2)N1CCc1ccccc1` (mixture of isomers) [1295.296] to `CC(C)C[C@H]1CN=C(NC(=O)Cc2ccccc2)N1CCc1ccccc1` [1295.205], the “% Inhibition RORγ 5 μg/ml” value rises from 41.7% to 54.1%.

Going from `C[C@H]1CN=C(NC(=O)Cc2ccccc2)N1CCc1ccccc1` [1295.201] to `C[C@@H]1CN=C(NC(=O)Cc2ccccc2)N1CCc1ccccc1` [1295.208], the “% Inhibition RORγ 5 μg/ml” value rises from -40.7% to -9.3%.

Compared with `O=C(Cc1ccccc1)NC1=NC[C@H](Cc2ccccc2)N1CCc1ccccc1` [1295.202], `O=C(Cc1ccccc1)NC1=NC[C@@H](Cc2ccccc2)N1CCc1ccccc1` [1295.209] is higher in “% Inhibition RORγ 5 μg/ml” value: 0.0% for the first, 46.8% for the second.

Compared with `O=C(Cc1ccccc1)NC1=NCCN1CCc1ccccc1` [1295.203], `CC1(C)CN=C(NC(=O)Cc2ccccc2)N1CCc1ccccc1` [1295.214] is higher in “% Inhibition RORγ 5 μg/ml” value: -29.5% for the first, 1.6% for the second.

First: CC(C)[C@H]1CN=C(NC(=O)Cc2ccccc2)N1CCc1ccccc1 [1295.206]
Second: CC(C)[C@@H]1CN=C(NC(=O)Cc2ccccc2)N1CCc1ccccc1 [1295.212]
The “% Inhibition RORγ 5 μg/ml” value of the first is lower: 32.7% for the first, 33.3% for the second.

First: O=C(Cc1ccccc1)NC1=NC[C@H](Cc2ccc(O)cc2)N1CCc1ccccc1 [1295.207]
Second: O=C(Cc1ccccc1)NC1=NC[C@H](Cc2ccc(Cl)cc2)N1CCc1ccccc1 [1295.225]
The “% Inhibition RORγ 5 μg/ml” value of the first is lower: -85.0% for the first, -32.6% for the second.

Compared with `CC(C)C[C@@H]1CN=C(NC(=O)Cc2ccccc2)N1CCc1ccccc1` [1295.211], `CC(C)CCN1C(NC(=O)Cc2ccccc2)=NC[C@@H]1Cc1ccccc1` [1295.257] is lower in “% Inhibition RORγ 5 μg/ml” value: 38.8% for the first, -28.5% for the second.

Going from `CCC[C@H]1CN=C(NC(=O)Cc2ccccc2)N1CCc1ccccc1` [1295.215] to `CCC[C@@H]1CN=C(NC(=O)Cc2ccccc2)N1CCc1ccccc1` [1295.216], the “% Inhibition RORγ 5 μg/ml” value falls from 31.5% to 24.5%.

Going from `CCCC[C@H]1CN=C(NC(=O)Cc2ccccc2)N1CCc1ccccc1` [1295.217] to `CCCC[C@@H]1CN=C(NC(=O)Cc2ccccc2)N1CCc1ccccc1` [1295.218], the “% Inhibition RORγ 5 μg/ml” value falls from 13.0% to -11.7%.

Going from `O=C(Cc1ccccc1)NC1=NC[C@H](c2ccccc2)N1CCc1ccccc1` [1295.219] to `O=C(Cc1ccccc1)NC1=NC[C@@H](c2ccccc2)N1CCc1ccccc1` [1295.220], the “% Inhibition RORγ 5 μg/ml” value falls from 0.1% to -5.2%.

First: O=C(Cc1ccccc1)NC1=NC[C@H](Cc2ccc3ccccc3c2)N1CCc1ccccc1 [1295.221]
Second: O=C(Cc1ccccc1)NC1=NC[C@@H](Cc2ccc3ccccc3c2)N1CCc1ccccc1 [1295.222]
The “% Inhibition RORγ 5 μg/ml” value of the first is higher: 31.3% for the first, 22.4% for the second.

Going from `O=C(Cc1ccccc1)NC1=NC[C@H](CC2CCCCC2)N1CCc1ccccc1` [1295.223] to `O=C(Cc1ccccc1)NC1=NC[C@@H](CC2CCCCC2)N1CCc1ccccc1` [1295.224], the “% Inhibition RORγ 5 μg/ml” value rises from 3.4% to 9.6%.

Compared with `O=C(Cc1ccccc1)NC1=NC[C@@H](Cc2ccc(Cl)cc2)N1CCc1ccccc1` [1295.226], `O=C(Cc1ccccc1)NC1=NC[C@H](Cc2ccc(F)cc2)N1CCc1ccccc1` [1295.227] is lower in “% Inhibition RORγ 5 μg/ml” value: 6.9% for the first, -8.2% for the second.

Going from `O=C(Cc1ccccc1)NC1=NC[C@@H](Cc2ccc(F)cc2)N1CCc1ccccc1` [1295.228] to `O=C(Cc1ccccc1)NC1=NC[C@H](Cc2ccccc2)N1CCc1ccc(F)cc1` [1295.240], the “% Inhibition RORγ 5 μg/ml” value rises from 31.3% to 52.2%.

Going from `O=C(Cc1ccccc1)NC1=NC[C@H](Cc2cccnc2)N1CCc1ccccc1` [1295.229] to `O=C(Cc1ccccc1)NC1=NC[C@@H](Cc2cccnc2)N1CCc1ccccc1` [1295.230], the “% Inhibition RORγ 5 μg/ml” value rises from -23.1% to -16.0%.

Going from `CC(C)(C)[C@H]1CN=C(NC(=O)Cc2ccccc2)N1CCc1ccccc1` [1295.231] to `CC(C)(C)[C@@H]1CN=C(NC(=O)Cc2ccccc2)N1CCc1ccccc1` [1295.232], the “% Inhibition RORγ 5 μg/ml” value rises from -31.5% to 8.2%.

Going from `CCOc1ccc(C[C@H]2CN=C(NC(=O)Cc3ccccc3)N2CCc2ccccc2)cc1` [1295.233] to `CCOc1ccc(C[C@@H]2CN=C(NC(=O)Cc3ccccc3)N2CCc2ccccc2)cc1` [1295.234], the “% Inhibition RORγ 5 μg/ml” value falls from 31.0% to -7.7%.

Going from `Cc1cccc(CCN2C(NC(=O)Cc3ccccc3)=NC[C@@H]2Cc2ccccc2)c1` [1295.237] to `O=C(Cc1ccccc1)NC1=NC[C@H](Cc2ccccc2)N1CCc1cccc(F)c1` [1295.238], the “% Inhibition RORγ 5 μg/ml” value rises from -4.8% to 34.6%.

Going from `O=C(Cc1ccccc1)NC1=NC[C@H](Cc2ccccc2)N1CCc1cccc(Br)c1` [1295.239] to `COc1cccc(CCN2C(NC(=O)Cc3ccccc3)=NC[C@@H]2Cc2ccccc2)c1` [1295.241], the “% Inhibition RORγ 5 μg/ml” value falls from 47.8% to 7.4%.

Compared with `O=C(Cc1ccccc1)NC1=NC[C@H](Cc2ccccc2)N1CCc1ccc(Br)cc1` [1295.242], `COc1ccc(CCN2C(NC(=O)Cc3ccccc3)=NC[C@@H]2Cc2ccccc2)cc1` [1295.243] is lower in “% Inhibition RORγ 5 μg/ml” value: 67.1% for the first, 27.2% for the second.

Going from `CCOc1ccc(CCN2C(NC(=O)Cc3ccccc3)=NCC2Cc2ccccc2)cc1` (stereo not shown) [1295.244] to `O=C(Cc1ccccc1)NC1=NC[C@H](Cc2ccccc2)N1CCc1ccccc1` [1295.250], the “% Inhibition RORγ 5 μg/ml” value rises from 5.9% to 9.9%.

Going from `O=C(Cc1ccccc1)NC1=NC[C@H](Cc2ccccc2)N1CCc1cc(C(F)(F)F)cc(C(F)(F)F)c1` [1295.246] to `COc1ccc(CCN2C(NC(=O)Cc3ccccc3)=NC[C@@H]2Cc2ccccc2)cc1OC` [1295.249], the “% Inhibition RORγ 5 μg/ml” value rises from 20.0% to 42.2%.

Compared with `COc1ccc(CCCN2C(NC(=O)Cc3ccccc3)=NC[C@H]2Cc2ccccc2)cc1OC` [1295.247], `O=C(Cc1ccccc1)NC1=NC[C@H](Cc2ccccc2)N1CCCc1ccccc1` [1295.251] is lower in “% Inhibition RORγ 5 μg/ml” value: 32.5% for the first, -112.4% for the second.

Going from `O=C(Cc1ccccc1)NC1=NC[C@H](Cc2ccccc2)N1CCCCc1ccccc1` [1295.252] to `CCCCN1C(NC(=O)Cc2ccccc2)=NC[C@@H]1Cc1ccccc1` [1295.253], the “% Inhibition RORγ 5 μg/ml” value falls from -2.3% to -12.1%.

Going from `CCCCCCCN1C(NC(=O)Cc2ccccc2)=NC[C@@H]1Cc1ccccc1` [1295.254] to `CCN1C(NC(=O)Cc2ccccc2)=NC[C@@H]1Cc1ccccc1` [1295.264], the “% Inhibition RORγ 5 μg/ml” value falls from 48.4% to 7.5%.

Going from `CC(C)(C)CN1C(NC(=O)Cc2ccccc2)=NC[C@@H]1Cc1ccccc1` [1295.259] to `O=C(Cc1ccccc1)NC1=NC[C@H](Cc2ccccc2)N1CC1CCC1` [1295.265], the “% Inhibition RORγ 5 μg/ml” value rises from -25.1% to 53.1%.

Compared with `O=C(Cc1ccccc1)NC1=NC[C@H](Cc2ccccc2)N1CC1CCCCC1` [1295.260], `O=C(Cc1ccccc1)NC1=NC[C@H](Cc2ccccc2)N1CC1CCCCCC1` [1295.263] is higher in “% Inhibition RORγ 5 μg/ml” value: -10.7% for the first, -8.4% for the second.

`O=C(Cc1ccccc1)NC1=NC[C@H](Cc2ccccc2)N1CC1CCCC1` [1295.266] was tested, and the “% Inhibition RORγ 5 μg/ml” value was 99.6%.
